Assay results: patent publication US5242912A, “Cyclic anthranilic acid derivatives and process of preparing the same” (Kyorin Pharmaceutical Co., Ltd., priority 1989, dated 1993)

Legend:
Bovine serum albumin = Bovine serum albumin (Bos taurus, UniProt P02769); assay: biochemical
Procedure: Inhibitory action against thermal denaturation of protein
Bovine serum albumin was dissolved into 1/15M phosphoric acid buffer solution, which was then adjusted to 0.7%. After adding the solution of the present invention compound thereto, it was heated at 65° C. for 7-8 minutes. After cooled, the absorbance at 660 nm was measured, compared with the absorbance of the reference to derive the inhibitory rate and then the concentration necessary to inhibit 50% was obtained.

bone resorption = assay: Inhibitory action against bone resorption (45Ca release from embryo front arm bone, IL-1β); type: cell-based; settings: Rattus norvegicus; 25 μg/ml, with interleukin-1β, 72 hours; read-out: Inhibitory rate against bone resorption (%)
Procedure: Inhibitory action against bone resorption
According to Raisz et al method (J. Clin. Invest., 155, 103 (1965)), bone piece of front arm of […] labelled with radioactive calcium (^45 Ca) was prepared in order to measure bone resorption. That is, the radioactive calcium (^45 CaCl2; 200 μCi) was injected under the skin to the back of rats in the 17th day of pregnancy and two days later they were killed with exsanguination by cutting of the carotid artery thereof. After the embryos were picked up and washed with sterilized phosphated buffer solution, the bone of front arm was taken out, which was then rendered free of the attached muscle and cartilage of the both ends, and said piece of bone was cultivated in the culture medium of BGJb.
Next, according to the method of Tsuda et al (J. Bone Miner. Metab., 1, 207 (1986)), the effect of the present invention compound against the bone resorption was determined, which are described as follows.
The piece of bone was put on a milipore-filter, and was pre-cultivated, in a well with 24 holes plate accomodating 0.6 ml culture medium of BGJb, at 37° C. and under 5% carbon dioxide. After the precultivation for 24 hours, said bone with the filter were transferred into a test culture medium added with interleukin-1β (1L-1β) or with both 1L-1β and drugs and the cultivation was continued. After 72 hours cultivation in said test culture medium, 0.3 ml of the supernatant was taken out and ^45 Ca released from the piece of bone was determined. After the piece of bone was immersed in 0.3 ml of 1N hydrochloric acid for more than 1.5 hours, 10 ml of ACSII was added thereto and the radioactivity was determined. Furthermore, the activity of bone resorption was represented by the ratio (percentage) of ^45 Ca released in the supernatant of cultivation to the total radioactivity which had been contained in the piece of bone (the sum of radioactivities in the piece of bone and the supernatant of cultivation). […]

vascular permeability = assay: Inhibition of increased vascular permeability (acetic acid i.p., Evans blue dye leakage); type: in vivo, Male ddy mice; settings: 100 mg/kg p.o., N = 9
Procedure: Inhibition of increased vascular permeability
Male ddy mice (6 weeks of age) were used in this experiment. Example 9 compound suspended in 5% gum arabic solution was administered p.o., 45 minutes before the i.v. injection of 1.0% Evans blue solution (0.1 ml/10 g B.W.). Immediately after the i.v. injection, 1.0% acetic acid solution was administered i.p. (0.1 ml/10 g B.W.). The mice were killed 30 minutes after the acetic acid injection. Peritoneal exudate was collected by washing out the peritoneal cavity with physiological saline and centrifuged at 3,000 r.p.m. After the centrifugation, spectrophotometry of the supernatant was measured at 630 nm. Results were expressed as dye leakage and percent inhibition.

Sequence of Bovine serum albumin (P02769 25-607): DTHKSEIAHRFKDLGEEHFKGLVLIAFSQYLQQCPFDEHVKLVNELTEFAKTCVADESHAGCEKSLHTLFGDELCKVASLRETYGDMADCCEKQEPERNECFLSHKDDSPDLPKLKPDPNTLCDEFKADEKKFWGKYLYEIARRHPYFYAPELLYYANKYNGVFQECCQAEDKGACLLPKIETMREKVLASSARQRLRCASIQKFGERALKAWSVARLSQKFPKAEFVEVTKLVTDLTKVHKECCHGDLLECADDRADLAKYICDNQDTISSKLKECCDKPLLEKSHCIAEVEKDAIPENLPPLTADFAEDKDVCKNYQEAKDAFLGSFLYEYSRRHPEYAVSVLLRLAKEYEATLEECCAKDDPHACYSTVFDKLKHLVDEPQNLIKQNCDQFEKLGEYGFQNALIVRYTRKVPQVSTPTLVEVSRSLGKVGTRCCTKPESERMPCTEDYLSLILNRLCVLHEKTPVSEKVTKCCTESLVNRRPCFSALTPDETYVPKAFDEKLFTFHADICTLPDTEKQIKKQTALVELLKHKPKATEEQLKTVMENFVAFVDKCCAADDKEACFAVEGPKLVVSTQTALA

Row | SMILES | IC50 (Bovine serum albumin) [µM] | inhibition at 25 µg/mL (bone resorption) [%] | Dye leakage (mean ± S.E) (vascular permeability; 45 minutes before Evans blue, control 25.77 ± 1.81, *significantly different from control, p < 0.01) [µg/mL] | Inhibition (%) (vascular permeability)
1 | O=C(O)c1cc([N+](=O)[O-])cc2c1NCCCC2 [Example 10, 7-Nitro-2,3,4,5-tetrahydro-1H-1-benzazepine-9-carboxylic acid] | 71 | – | – | –
2 | CC(C)Oc1ccc2c(=O)c(-c3ccccc3)coc2c1 [Ipriflavone, 7-isopropoxy isoflavone, reference compound] | – | 58 | – | –
3 | O=C(O)c1cc2c(c(C(=O)O)c1)NCCCC2 [Example 12, 2,3,4,5-Tetrahydro-1H-1-benzazepine-7,9-di-carboxylic acid] | – | 84 | – | –
4 | O=C(O)c1cc(Br)cc2c1NCCCC2 [Example 9, 7-Bromo2,3,4,5-tetrahydro-1H-1-benzazepine-9-carboxylic acid] | 132 | – | 17.43 ± 1.38 | 32.3
5 | N#Cc1cc2c(c(C(=O)O)c1)NCCCC2 [Example 11 c), 7-Cyano-2,3,4,5-tetrahydro-1H-1-benzazepine-9-carboxylic acid] | – | 54 | – | –
